For this experiment, the system named is HCV 1b RLuc cells (dicistronic genotype 1b Con1 replicon). In words: Renilla luciferase (RLuc)-based HCV replicon reporter assay. The experiment is classed as cell-based, HCV genotype 1b. As to conditions: Hepatitis C virus, 72 h, HCV 1b RLuc replicon, 72 hours; read-out: Activity (antiviral potency [EC50]). As to the method: Antiviral potency (EC50) was determined using a Renilla luciferase (RLuc)-based HCV replicon reporter assay. To perform the assay, HCV 1b RLuc cells (harboring a dicistronic genotype 1b Con1 replicon that encodes a RLuc reporter), or HCV 1a RLuc cells (harboring a dicistronic genotype 1a H77 replicon that encodes a RLuc reporter), were dispensed into 384-well plates. Compounds were re-suspended in DMSO at a concentration of 10 mM and serially diluted in DMSO using an automated pipeting instrument. Serially diluted compounds were mixed with cell culture media and added to the seeded cells. DMSO was used as a negative (solvent) control, and the protease inhibitor ITMN-191 was included at a concentration >100×EC50 as a positive control. 72 hours later, cells were lysed and Renilla luciferase activity quantified as recommended by the manufacturer (Promega-Madison, Wis.). Non-linear regression was performed to calculate EC50 values.
Biological data (antiviral potency [EC50] was determined using a Renilla luciferase (RLuc)-based HCV replicon reporter assay—HCV 1b RLuc) for representative compounds of the invention is provided in the following table. These compounds can be prepared using procedures similar to those described above.
A general note: A replicon is a self-replicating genome or part of one, used to study replication in cells.
By EC50 is commonly meant the concentration giving half of the maximal effect. With `COC(=O)N[C@H](C(=O)N1CCC[C@H]1C(=O)NCc1ccc(-c2ccc(-c3cnc([C@@H]4CCCN4C(=O)[C@@H](NC(=O)OC)C(C)C)[nH]3)cc2)cc1)C(C)C`, the EC50 amounted to 1400 pM.

As to `COC(=O)N[C@H](C(=O)N1CCC[C@H]1c1ncc(-c2ccc(-c3ccc(-c4cnc([C@@H]5[C@H]6CC[C@H](C6)N5C(=O)[C@@H](NC(=O)OC)C(C)C)[nH]4)cc3)cc2)[nH]1)C(C)C`, the half-maximal effective concentration (EC50) was 7.3 pM.

Consider `COC(=O)N[C@H](C(=O)N1CCC[C@H]1c1ncc(-c2ccc(-c3ccc(-c4cnc([C@@H]5CN(S(C)(=O)=O)CN5C(=O)[C@@H](NC(=O)OC)C(C)C)[nH]4)cc3)cc2)[nH]1)C(C)C`, for which the EC50 was 38.3 pM.

In the case of `COC(=O)N[C@H](C(=O)N1CCC[C@H]1C(=O)Nc1cccc(-c2ccc(-c3cnc([C@@H]4CCCN4C(=O)[C@@H](NC(=O)OC)C(C)C)[nH]3)cc2)c1)C(C)C`, the EC50 turned out to be 118 pM.

`COC(=O)N[C@H](C(=O)N1CCC[C@H]1c1ncc(-c2ccc(-c3ccc(-c4ccc5nc([C@@H]6[C@H]7CC[C@H](C7)N6C(=O)[C@@H](NC(=O)OC)C(C)C)[nH]c5c4)cc3)cc2)[nH]1)C(C)C`: the EC50 worked out at 6 pM.

`COC(=O)N[C@H](C(=O)N1[C@@H]2CC[C@@H](C2)[C@H]1c1nc2ccc(-c3ccc(-c4ccc(-c5ccc6nc([C@@H]7[C@H]8CC[C@H](C8)N7C(=O)[C@@H](NC(=O)OC)C(C)C)[nH]c6c5)cc4)cc3)cc2[nH]1)C(C)C`: the EC50 came out at 284 pM.

Consider `COC(=O)N[C@H](C(=O)N1CCC[C@H]1c1ncc(-c2ccc(C#Cc3ccc(-c4cnc([C@@H]5COCCN5C(=O)[C@@H](NC(=O)OC)C(C)C)[nH]4)cc3)cc2)[nH]1)C(C)C`, for which the EC50 turned out to be 19.8 pM.

For `COC(=O)N[C@H](C(=O)N1CCC[C@H]1c1ncc(-c2ccc3c(c2)sc2cc(-c4cnc([C@@H]5CCCN5C(=O)[C@@H](NC(=O)OC)C(C)C)[nH]4)ccc23)[nH]1)C(C)C`, the EC50 was 7.4 pM.

Turning to `COC(=O)NC(C(=O)N1CCC[C@H]1c1ncc(-c2ccc(C#Cc3ccc(-c4cnc([C@@H]5CCCN5C(=O)[C@@H](NC(=O)OC)C(C)C)[nH]4)cc3)cc2)[nH]1)C(F)(F)F` (stereo partly drawn), the concentration giving a half-maximal response (EC50) was above 44400 pM.

In the case of `COC(=O)N[C@H](C(=O)N1CCC[C@H]1c1ncc(-c2ccc(C#Cc3ccc(-c4cnc([C@@H]5CN(C(C)=O)CCN5C(=O)[C@@H](NC(=O)OC)C(C)C)[nH]4)cc3)cc2)[nH]1)C(C)C`, the EC50 stood at 204 pM.

For `COC(=O)N[C@H](C(=O)N1CCC[C@H]1c1ncc(-c2ccc(C#Cc3ccc(-c4cnc([C@@H]5CN(C(=O)OC)CCN5C(=O)[C@@H](NC(=O)OC)C(C)C)[nH]4)cc3)cc2)[nH]1)C(C)C`, the concentration for a half-maximal effect (EC50) came to 256 pM.

With `CNC(=O)N1C[C@@H](c2ncc(-c3ccc(C#Cc4ccc(-c5cnc([C@@H]6CCCN6C(=O)[C@@H](NC(=O)OC)C(C)C)[nH]5)cc4)cc3)[nH]2)N(C(=O)[C@@H](NC(=O)OC)C(C)C)C1`, the EC50 worked out at 245 pM.

Turning to `COC(=O)N[C@H](C(=O)N1CCC[C@H]1c1ncc(-c2ccc(C#Cc3ccc(-c4cnc([C@@H]5CN(S(=O)(=O)N(C)C)CCN5C(=O)[C@@H](NC(=O)OC)C(C)C)[nH]4)cc3)cc2)[nH]1)C(C)C`, the EC50 came to 53 pM.

For the molecule `CNC(=O)N1CCN(C(=O)[C@@H](NC(=O)OC)C(C)C)[C@H](c2ncc(-c3ccc(C#Cc4ccc(-c5cnc([C@@H]6CCCN6C(=O)[C@@H](NC(=O)OC)C(C)C)[nH]5)cc4)cc3)[nH]2)C1`, the EC50 was 1050 pM.

`COC(=O)N[C@H](C(=O)N1CCC[C@H]1c1ncc(-c2ccc3c(c2)S(=O)(=O)c2ccc(-c4cnc([C@@H]5CCCN5C(=O)[C@@H](NC(=O)OC)C(C)C)[nH]4)cc2S3(=O)=O)[nH]1)C(C)C`: the EC50 is 10300 pM.

In the case of `COC(=O)N[C@H](C(=O)N1CCC[C@H]1c1ncc(-c2ccc(-c3ccc(-c4cnc([C@@H]5CCCN5C(=O)[C@@H](NC(=O)OC)C(C)C)[nH]4)c(C#N)c3)cc2)[nH]1)C(C)C`, the EC50 stood at 19.2 pM.

Take `COC(=O)N[C@H](C(=O)N1CCC[C@H]1c1ncc(-c2ccc3c(c2)oc2cc(-c4cnc([C@@H]5CCCN5C(=O)[C@@H](NC(=O)OC)C(C)C)[nH]4)ccc23)[nH]1)C(C)C`: the EC50 was determined as 5.2 pM.

As for `COC(=O)N[C@H](C(=O)N1CCC[C@H]1c1ncc(-c2ccc3c(c2)CCc2cc(-c4ccc5nc([C@@H]6CCCN6C(=O)[C@@H](NC(=O)OC)C(C)C)[nH]c5c4)ccc2-3)[nH]1)C(C)C`, the EC50 stood at 3.7 pM.

In the case of `COC(=O)N[C@H](C(=O)N1CCC[C@H]1c1ncc(-c2ccc3c(c2)C(F)(F)c2cc(-c4ccc5nc([C@@H]6CCCN6C(=O)[C@@H](NC(=O)OC)C(C)C)[nH]c5c4)ccc2-3)[nH]1)C(C)C`, the EC50 was below 2.3 pM.

With `COC(=O)N[C@H](C(=O)N1CCC[C@H]1c1ncc(-c2ccc(-c3ccc(-c4cnc([C@@H]5CCCN5C(=O)[C@@H](NC(=O)OC)C(C)C)[nH]4)cc3)cc2)[nH]1)C(C)C`, the EC50 was 71.9 pM.

Take `COC(=O)N[C@H](C(=O)N1CCC[C@H]1c1ncc(-c2ccc(-c3ccc(-c4cnc([C@@H]5COCCN5C(=O)[C@@H](NC(=O)OC)C(C)C)[nH]4)cc3)cc2)[nH]1)C(C)C`: the EC50 was determined as 21.4 pM.

On to `COC(=O)N[C@H](C(=O)N1CCC[C@H]1c1ncc(-c2ccc3c(c2)oc2cc(-c4cnc([C@@H]5[C@H]6CC[C@H](C6)N5C(=O)[C@@H](NC(=O)OC)C(C)C)[nH]4)ccc23)[nH]1)C(C)C`, for which the EC50 amounted to 8.2 pM.

`COC(=O)N[C@H](C(=O)N1CCC[C@H]1c1ncc(-c2ccc(-c3ccc(-c4cnc([C@@H]5SCCN5C(=O)[C@@H](NC(=O)OC)C(C)C)[nH]4)cc3)cc2)[nH]1)C(C)C`: the EC50 turned out to be 17.1 pM.

As for `COC(=O)N[C@H](C(=O)N1CCC[C@H]1c1ncc(-c2ccc3c4ccc(-c5cnc([C@@H]6CCCN6C(=O)[C@@H](NC(=O)OC)C(C)C)[nH]5)cc4[s+]([O-])c3c2)[nH]1)C(C)C`, the EC50 was found to be 32.2 pM.

For `COC(=O)N[C@H](C(=O)N1CCC[C@H]1c1ncc(-c2ccc(C#Cc3ccc(-c4cnc([C@H]5N(C(=O)[C@@H](NC(=O)OC)C(C)C)CSC5(C)C)[nH]4)cc3)cc2)[nH]1)C(C)C`, the EC50 was determined as 42.4 pM.

As for `COC(=O)N[C@H](C(=O)N1CCC[C@H]1c1ncc(-c2ccc3c(c2)COc2cc(-c4cnc([C@@H]5CCCN5C(=O)[C@@H](NC(=O)OC)C(C)C)[nH]4)ccc2-3)[nH]1)C(C)C`, the EC50 is 13.1 pM.

On to `COC(=O)N[C@@H](C)C(=O)N1CCN(C(=O)OC)C[C@H]1c1ncc(-c2ccc(-c3ccc(-c4cnc([C@@H]5CCCN5C(=O)[C@@H](NC(=O)OC)C(C)C)[nH]4)cc3)cc2)[nH]1`, for which the EC50 worked out at 224 pM.

Consider `COC(=O)N[C@H](C(=O)N1CCC[C@H]1c1ncc(-c2ccc3c(c2)oc2cc(-c4ccc5nc([C@@H]6CCCN6C(=O)[C@@H](NC(=O)OC)C(C)C)[nH]c5c4)ccc23)[nH]1)C(C)C`, for which the 50% effective concentration (EC50) is 7.5 pM.

Turning to `COC(=O)N[C@H](C(=O)N[C@@H](CO)c1ncc(-c2ccc(-c3ccc(-c4cnc([C@@H]5CCCN5C(=O)[C@@H](NC(=O)OC)C(C)C)[nH]4)cc3)cc2)[nH]1)C(C)C`, the EC50 is 77.5 pM.

Turning to `COC(=O)N[C@H](C(=O)N1CCC[C@H]1c1ncc(-c2ccc3cc(-c4ccc(-c5cnc([C@@H]6C[C@@H](C#N)CN6C(=O)[C@@H](NC(=O)OC)C(C)C)[nH]5)cc4)ccc3c2)[nH]1)C(C)C`, the EC50 is 4.8 pM.

Take `COC(=O)N[C@H](C(=O)N1CCC[C@H]1c1ncc(-c2ccc3c(c2)sc2cc(-c4ccc5nc([C@@H]6[C@H]7CC[C@H](C7)N6C(=O)[C@@H](NC(=O)OC)C(C)C)[nH]c5c4)ccc23)[nH]1)C(C)C`: the EC50 turned out to be 3.7 pM.

As for `COC(=O)N[C@@H](C)C(=O)N1CCC[C@H]1c1ncc(-c2ccc3cc(-c4ccc5cc(-c6cnc([C@@H]7[C@H]8CC[C@H](C8)N7C(=O)[C@H](C)NC(=O)OC)[nH]6)ccc5c4)ccc3c2)[nH]1`, the EC50 is 2610 pM.

Consider `COC(=O)N[C@H](C(=O)N1CCC[C@H]1c1ncc(-c2ccc3cc(C#Cc4ccc5nc([C@@H]6[C@H]7CC[C@H](C7)N6C(=O)[C@@H](NC(=O)OC)C(C)C)[nH]c5c4)ccc3c2)[nH]1)C(C)C`, for which the EC50 amounted to 19.5 pM.

As for `COC(=O)N[C@H](C(=O)N1CCC[C@H]1c1ncc(-c2ccc3cc(-c4ccc(-c5cnc([C@@H]6C[C@H](C#N)CN6C(=O)[C@@H](NC(=O)OC)C(C)C)[nH]5)cc4)ccc3c2)[nH]1)C(C)C`, the half-maximal effective concentration (EC50) worked out at 6.7 pM.

For `COC(=O)N[C@H](C(=O)N1CCC[C@H]1c1ncc(-c2ccc(-c3ccc4cc(-c5ccc6nc([C@@H]7[C@H]8CC[C@H](C8)N7C(=O)[C@@H](NC(=O)OC)C(C)C)[nH]c6c5)ccc4c3)cc2)[nH]1)C(C)C`, the EC50 was 89.8 pM.

Take `COC(=O)N[C@H](C(=O)N1CCC[C@H]1c1ncc(-c2ccc3c(c2)C(F)(F)c2cc(-c4ccc5nc([C@@H]6[C@H]7CC[C@H](C7)N6C(=O)[C@@H](NC(=O)OC)C(C)C)[nH]c5c4)ccc2-3)[nH]1)C(C)C`: the EC50 turned out to be 2.9 pM.

For the molecule `COC(=O)N[C@@H](C)C(=O)N1[C@@H]2CC[C@@H](C2)[C@H]1c1ncc(-c2ccc3cc(-c4ccc(-c5cnc([C@@H]6CCCN6C(=O)[C@@H](NC(=O)OC)C(C)C)[nH]5)cc4)ccc3c2)[nH]1`, the EC50 came to 16 pM.

Take `COC(=O)N[C@H](C(=O)N1CCC[C@H]1c1ncc(-c2ccc3c(c2)CCc2cc(-c4ccc5nc([C@@H]6[C@H]7CC[C@H](C7)N6C(=O)[C@@H](NC(=O)OC)C(C)C)[nH]c5c4)ccc2-3)[nH]1)C(C)C`: the EC50 stood at 5.4 pM.

Take `COC(=O)N[C@@H](C)C(=O)N1CCC[C@H]1c1ncc(-c2ccc3c(c2)CCc2cc(-c4cnc([C@@H]5[C@H]6CC[C@H](C6)N5C(=O)[C@H](C)NC(=O)OC)[nH]4)ccc2-3)[nH]1`: the EC50 was found to be 36.8 pM.

Source of the values: patent US8822430B2 (Gilead Sciences, Inc., priority 2009, dated 2014).
